Counter-ions that a name gives are not always drawn.
Test system: healthy beagle dogs
Assay: Subchronic action on blood cholesterol values of dogs (feeding experiment)
Assay type: in vivo, dog
Settings: 8 mg/kg p.o. daily, after 2-week administration, cholestyramine (4 g/100 g of feed) in feed, compared with serum cholesterol before the administration period
Protocol: The subchronic action of the disubstituted pyridines on blood cholesterol values of dogs was tested in feeding experiments extending over several weeks. For this, the substance to be investigated was given p.o. once daily in a capsule to healthy beagle dogs together with the feed over a time period of several weeks. In addition, during the entire experimental period, i.e. before, during and after the administration period, the substance cholestyramine (4 g/100 g of feed) to be investigated was mixed with the feed as the […] sequestrant. Twice weekly, venous blood was taken from the dogs and the serum cholesterol was determined enzymatically. The serum cholesterol values during the administration period were compared with the serum cholesterol values before the administration period (controls).

CC(C)c1nc(C(C)C)c(/C=C/C(O)CC(O)CC(=O)O)c(-c2ccc(F)cc2)c1/C=C/C(O)CC(O)CC(=O)O (stereo not shown) [Na salt of Example 8, 2,6-diisopropyl 4-(4-fluorophenyl)-3,5-di-(sodiumerythro-(E)-3,5-dihydroxy-hept-6-enoat-7-yl)-pyridine]
Lowering of the serum cholesterol: about 22.4%

Reference: patent publication US5502057A, “Polysubstituted pyridines useful for treating lipoproteinanaemia and arteriosclerosis” (Bayer Aktiengesellschaft, priority 1988, dated 1996)
